The values that follow come from patent publication EP1435238A1, “Methods for treating apnea and apnea disorders using optically pure R (+) ondansetron” (Sepracor Inc., priority 1999, dated 2000).

The data set can be described thus: Electrophysiological effects (EKG, QTc interval, cardiotoxicity) in dogs. Conditions: for prolongation of QTc interval (comparison in words): among the animals tested; for QTc Interval: dogs, rising cumulative dose at 30 minute intervals; for dogs died / survived: during or shortly after the experiment, four dogs per treatment, cumulative doses up to 4.0 mg/kg. The data set is classed as in vivo, mongrel dogs.

Where [1] appears, read: 4.0 mg/kg, N=4 except S(-) ondansetron N=3.

Protocol: An investigation was conducted to determine the effect of racemic ondansetron and the R(+)- and S(-)- enanatiomers of ondansetron in causing cardiac arrhythmias (cardiotoxicity) resulting from a lengthening of the cardiac action potential.
The order of administration was randomized to ensure that each dog received only one treatment.

Consider `Cc1nccn1CC1CCc2c(c3ccccc3n2C)C1=O` (racemic) [R,S-Ondansetron, ondansetron], for which the “prolongation of QTc interval (comparison in words)” value (“prolongation of QTc interval” for short) is given as “most prolonged” and the “dogs died / survived” value is “survived”. The “QTc Interval” value (1.0 mg/kg, N=4) was 0.41 ± 0.01 s. For the setting “2.0 mg/kg, N=4”, the “QTc Interval” value came out at 0.45 ± 0.01 s. For the same compound, the “QTc Interval” value under setting [1] came to 0.47 ± 0.01 s.

Regarding `Cc1nccn1C[C@H]1CCc2c(c3ccccc3n2C)C1=O` [R(+)-Ondansetron, R(+) ondansetron], the “prolongation of QTc interval” value is on record as “shortest” and the “dogs died / survived” value is listed as “survived”. Besides, the “cardiotoxicity (comparison in words)” value (conclusion from QTc and mortality data) is given as “less cardiotoxicity than either S(-) ondansetron or racemic ondansetron”. For the same compound, the “QTc Interval” value (1.0 mg/kg, N=4) was 0.39 ± 0.01 s. In addition, the “QTc Interval” value (2.0 mg/kg, N=4) came out at 0.40 ± 0.01 s. The “QTc Interval” value under setting [1] was determined as 0.41 ± 0.02 s.

Take `Cc1nccn1C[C@@H]1CCc2c(c3ccccc3n2C)C1=O` [S(-)-Ondansetron, S(-) ondansetron]: the “prolongation of QTc interval” value was “most prolonged”. Also, the “QTc Interval” value (1.0 mg/kg, N=4) was determined as 0.43 ± 0.02 s. For the setting “2.0 mg/kg, N=4”, the “QTc Interval” value is 0.44 ± 0.04 s. The “QTc Interval” value under setting [1] turned out to be 0.44 ± 0.03 s.
